Experimental data published in PubChem BioAssay AID2060902 (Molecular Pharmacology Branch, DTP, NCI, 2025).

Test system: 485368-065-R3-J5-PDC spheroids with HUVEC/MSC, viability
Test: Anticancer human tumor 485368-065-R3-J5-PDC patient-derived pancreatic carcinoma cell line growth inhibition [RAS]
Conditions: for IC50: curve of first compound; for viability, T/C: stronger effect = lower value
Outline: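 Tumour cells grown as complex spheroids with HUVEC endothelial cells and mesenchymal stem cells, treated with RAS pathway inhibitor combinations. Each agent spans half-log steps from near clinical Cmax, or 10 microM where Cmax is unknown.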

[1] = second compound 0.000949 µM, first compound 0.0316 µM
[2] = second compound 0.000949 µM, first compound 0.1 µM
[3] = second compound 0.000949 µM, first compound 0.316 µM
[4] = second compound 0.000949 µM, first compound 1 µM
[5] = second compound 0.000949 µM, first compound 3.16 µM
[6] = second compound 0.000949 µM, first compound 10 µM
[7] = second compound 0.003 µM, first compound 0.0316 µM
[8] = second compound 0.003 µM, first compound 0.1 µM
[9] = second compound 0.003 µM, first compound 0.316 µM
[10] = second compound 0.003 µM, first compound 1 µM
[11] = second compound 0.003 µM, first compound 3.16 µM
[12] = second compound 0.003 µM, first compound 10 µM
[13] = second compound 0.00949 µM, first compound 0.0316 µM
[14] = second compound 0.00949 µM, first compound 0.1 µM
[15] = second compound 0.00949 µM, first compound 0.316 µM
[16] = second compound 0.00949 µM, first compound 1 µM
[17] = second compound 0.00949 µM, first compound 3.16 µM
[18] = second compound 0.00949 µM, first compound 10 µM
[19] = second compound 0.03 µM, first compound 0.0316 µM
[20] = second compound 0.03 µM, first compound 0.1 µM
[21] = second compound 0.03 µM, first compound 0.316 µM
[22] = second compound 0.03 µM, first compound 1 µM
[23] = second compound 0.03 µM, first compound 3.16 µM
[24] = second compound 0.03 µM, first compound 10 µM
[25] = second compound 0.0949 µM, first compound 0.0316 µM
[26] = second compound 0.0949 µM, first compound 0.1 µM
[27] = second compound 0.0949 µM, first compound 0.316 µM
[28] = second compound 0.0949 µM, first compound 1 µM
[29] = second compound 0.0949 µM, first compound 3.16 µM
[30] = second compound 0.0949 µM, first compound 10 µM
[31] = second compound 0.3 µM, first compound 0.0316 µM
[32] = second compound 0.3 µM, first compound 0.1 µM
[33] = second compound 0.3 µM, first compound 0.316 µM
[34] = second compound 0.3 µM, first compound 1 µM
[35] = second compound 0.3 µM, first compound 3.16 µM
[36] = second compound 0.3 µM, first compound 10 µM
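Note: spheroids exposed to agents for seven days before readout.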

In the case of `CC(C)NCC(C(=O)N1CCN(c2ncnc3c2C(C)CC3O)CC1)c1ccc(Cl)cc1` (stereo not drawn) + CCn1c(-c2cccnc2C(C)OC)c2c3cc(ccc31)N1CCOC(CC(NC(=O)C(C(C)C)N(C)C(=O)C3(F)CCN(C(=O)C#CC(C)(C)N(C)C)CC3)C(=O)N3CCCC(N3)C(=O)OCC(C)(C)C2)C1, the IC50 (second compound 0.000949 µM) is reported as greater than 10 µM, the IC50 (second compound 0.003 µM) is reported as greater than 10 µM and the IC50 (second compound 0.00949 µM) is reported as greater than 10 µM. It also gave an IC50 (second compound 0.03 µM) greater than 10 µM, an IC50 (second compound 0.0949 µM) greater than 10 µM and an IC50 (second compound 0.3 µM) greater than 10 µM. It also gave a viability, T/C [1] of 102%, a viability, T/C [2] of 99.4% and a viability, T/C [3] of 95.9%. It also gave a viability, T/C [4] of 79.9%, a viability, T/C [5] of 74.6% and a viability, T/C [6] of 55.8%. The viability, T/C [7] was 88.7%, the viability, T/C [8] was 94% and the viability, T/C [9] was 93.8%. The viability, T/C [10] was 81.7%, the viability, T/C [11] was 81.4% and the viability, T/C [12] was 62.2%. For the same molecule, the viability, T/C [13] was 95.7%, the viability, T/C [14] was 103% and the viability, T/C [15] was 97%. The viability, T/C [16] was 87.6%, the viability, T/C [17] was 76.8% and the viability, T/C [18] was 66.1%. The viability, T/C [19] was 89.1%, the viability, T/C [20] was 104% and the viability, T/C [21] was 88.4%. For the same molecule, the viability, T/C [22] was 84.7%, the viability, T/C [23] was 70.2% and the viability, T/C [24] was 58.6%. For the same molecule, the viability, T/C [25] was 99.9%, the viability, T/C [26] was 104% and the viability, T/C [27] was 89.5%. For the same molecule, the viability, T/C [28] was 80.7%, the viability, T/C [29] was 69.8% and the viability, T/C [30] was 56.2%. It also gave a viability, T/C [31] of 98.7%, a viability, T/C [32] of 101% and a viability, T/C [33] of 90.7%. It also gave a viability, T/C [34] of 78.8%, a viability, T/C [35] of 70.3% and a viability, T/C [36] of 49.7%.
`CC(C)n1nc(-c2ccc3oc(N)nc3c2)c2c(N)ncnc21` + CCn1c(-c2cccnc2C(C)OC)c2c3cc(ccc31)N1CCOC(CC(NC(=O)C(C(C)C)N(C)C(=O)C3(F)CCN(C(=O)C#CC(C)(C)N(C)C)CC3)C(=O)N3CCCC(N3)C(=O)OCC(C)(C)C2)C1 gave an IC50 (second compound 0.000949 µM) of 0.0217 µM, an IC50 (second compound 0.003 µM) of 0.0191 µM and an IC50 (second compound 0.00949 µM) of 0.0199 µM. The IC50 (second compound 0.03 µM) was 0.0217 µM, the IC50 (second compound 0.0949 µM) was 0.0212 µM and the IC50 (second compound 0.3 µM) was 0.0256 µM. For the same molecule, the viability, T/C (second compound 0.000949 µM, first compound 0.000316 µM) was 93.8%, the viability, T/C (second compound 0.000949 µM, first compound 0.001 µM) was 107% and the viability, T/C (second compound 0.000949 µM, first compound 0.00316 µM) was 84.2%. The viability, T/C (second compound 0.000949 µM, first compound 0.01 µM) was 73.4%, the viability, T/C [1] was 38.8% and the viability, T/C [2] was 21.2%. For the same molecule, the viability, T/C (second compound 0.003 µM, first compound 0.000316 µM) was 97.6%, the viability, T/C (second compound 0.003 µM, first compound 0.001 µM) was 97.3% and the viability, T/C (second compound 0.003 µM, first compound 0.00316 µM) was 85.6%. For the same molecule, the viability, T/C (second compound 0.003 µM, first compound 0.01 µM) was 66.8%, the viability, T/C [7] was 37.2% and the viability, T/C [8] was 19.4%. It also gave a viability, T/C (second compound 0.00949 µM, first compound 0.000316 µM) of 88.2%, a viability, T/C (second compound 0.00949 µM, first compound 0.001 µM) of 115% and a viability, T/C (second compound 0.00949 µM, first compound 0.00316 µM) of 85.9%. It also gave a viability, T/C (second compound 0.00949 µM, first compound 0.01 µM) of 66.6%, a viability, T/C [13] of 40.2% and a viability, T/C [14] of 19.4%. It also gave a viability, T/C (second compound 0.03 µM, first compound 0.000316 µM) of 92%, a viability, T/C (second compound 0.03 µM, first compound 0.001 µM) of 96.3% and a viability, T/C (second compound 0.03 µM, first compound 0.00316 µM) of 96.2%. It also gave a viability, T/C (second compound 0.03 µM, first compound 0.01 µM) of 78.1%, a viability, T/C [19] of 36.4% and a viability, T/C [20] of 22.1%. It also gave a viability, T/C (second compound 0.0949 µM, first compound 0.000316 µM) of 89.3%, a viability, T/C (second compound 0.0949 µM, first compound 0.001 µM) of 98.2% and a viability, T/C (second compound 0.0949 µM, first compound 0.00316 µM) of 96.6%. For the same molecule, the viability, T/C (second compound 0.0949 µM, first compound 0.01 µM) was 69.1%, the viability, T/C [25] was 40.3% and the viability, T/C [26] was 19.5%. The viability, T/C (second compound 0.3 µM, first compound 0.000316 µM) was 97.3%, the viability, T/C (second compound 0.3 µM, first compound 0.001 µM) was 99.4% and the viability, T/C (second compound 0.3 µM, first compound 0.00316 µM) was 86.9%. For the same molecule, the viability, T/C (second compound 0.3 µM, first compound 0.01 µM) was 75%, the viability, T/C [31] was 43.9% and the viability, T/C [32] was 22.4%.
`CC(Nc1ccc2c(c1)OCCn1cc(N3C(=O)OCC3C(F)F)nc1-2)C(N)=O` (stereo not drawn) + CCn1c(-c2cccnc2C(C)OC)c2c3cc(ccc31)N1CCOC(CC(NC(=O)C(C(C)C)N(C)C(=O)C3(F)CCN(C(=O)C#CC(C)(C)N(C)C)CC3)C(=O)N3CCCC(N3)C(=O)OCC(C)(C)C2)C1 gave an IC50 (second compound 0.000949 µM) greater than 10 µM, an IC50 (second compound 0.003 µM) greater than 10 µM and an IC50 (second compound 0.00949 µM) greater than 10 µM. The IC50 (second compound 0.03 µM) was greater than 10 µM, the IC50 (second compound 0.0949 µM) was greater than 10 µM and the IC50 (second compound 0.3 µM) was greater than 10 µM. The viability, T/C [1] was 106%, the viability, T/C [2] was 93.9% and the viability, T/C [3] was 94.2%. The viability, T/C [4] was 72.2%, the viability, T/C [5] was 70.4% and the viability, T/C [6] was 65.8%. It also gave a viability, T/C [7] of 90.8%, a viability, T/C [8] of 93% and a viability, T/C [9] of 93.7%. It also gave a viability, T/C [10] of 86.2%, a viability, T/C [11] of 98.9% and a viability, T/C [12] of 56.8%. The viability, T/C [13] was 94.4%, the viability, T/C [14] was 101% and the viability, T/C [15] was 84.9%. It also gave a viability, T/C [16] of 96%, a viability, T/C [17] of 85.9% and a viability, T/C [18] of 55.7%. It also gave a viability, T/C [19] of 96.6%, a viability, T/C [20] of 91% and a viability, T/C [21] of 99%. For the same molecule, the viability, T/C [22] was 82.5%, the viability, T/C [23] was 95.5% and the viability, T/C [24] was 65%. The viability, T/C [25] was 103%, the viability, T/C [26] was 94.1% and the viability, T/C [27] was 78.6%. It also gave a viability, T/C [28] of 93.7%, a viability, T/C [29] of 77.9% and a viability, T/C [30] of 62.1%. The viability, T/C [31] was 100%, the viability, T/C [32] was 101% and the viability, T/C [33] was 86.6%. For the same molecule, the viability, T/C [34] was 83.7%, the viability, T/C [35] was 84% and the viability, T/C [36] was 71.8%.
In the case of `C[C@@H](NC(=O)c1ncnc(N)c1Cl)c1ncc(C(=O)Nc2cc(C(F)(F)F)c(Cl)cn2)s1` + CCn1c(-c2cccnc2C(C)OC)c2c3cc(ccc31)N1CCOC(CC(NC(=O)C(C(C)C)N(C)C(=O)C3(F)CCN(C(=O)C#CC(C)(C)N(C)C)CC3)C(=O)N3CCCC(N3)C(=O)OCC(C)(C)C2)C1, the IC50 (second compound 0.000949 µM) is reported as greater than 10 µM, the IC50 (second compound 0.003 µM) is reported as greater than 10 µM and the IC50 (second compound 0.00949 µM) is reported as greater than 10 µM. For the same molecule, the IC50 (second compound 0.03 µM) was greater than 10 µM, the IC50 (second compound 0.0949 µM) was greater than 10 µM and the IC50 (second compound 0.3 µM) was greater than 10 µM. For the same molecule, the viability, T/C [1] was 107%, the viability, T/C [2] was 102% and the viability, T/C [3] was 106%. For the same molecule, the viability, T/C [4] was 93.6%, the viability, T/C [5] was 92.6% and the viability, T/C [6] was 86.4%. The viability, T/C [7] was 102%, the viability, T/C [8] was 107% and the viability, T/C [9] was 102%. It also gave a viability, T/C [10] of 94.6%, a viability, T/C [11] of 106% and a viability, T/C [12] of 80.3%. The viability, T/C [13] was 102%, the viability, T/C [14] was 110% and the viability, T/C [15] was 103%. For the same molecule, the viability, T/C [16] was 105%, the viability, T/C [17] was 96.5% and the viability, T/C [18] was 89%. It also gave a viability, T/C [19] of 102%, a viability, T/C [20] of 120% and a viability, T/C [21] of 106%. The viability, T/C [22] was 105%, the viability, T/C [23] was 107% and the viability, T/C [24] was 94.6%. It also gave a viability, T/C [25] of 102%, a viability, T/C [26] of 111% and a viability, T/C [27] of 105%. The viability, T/C [28] was 96.5%, the viability, T/C [29] was 104% and the viability, T/C [30] was 76.1%. The viability, T/C [31] was 97.5%, the viability, T/C [32] was 118% and the viability, T/C [33] was 111%. For the same molecule, the viability, T/C [34] was 108%, the viability, T/C [35] was 106% and the viability, T/C [36] was 79.2%.
